Measurements from US9447093B2, “3,5-diarylazaindoles as DYRK1A protein inhibitors for the treatment of cognitive deficiencies associated with Down's syndrome and with Alzheimer's disease” (Centre National De La Recherche Scientifique, priority 2012, dated 2016).

Experiments:
DYRK1A protein = molecular target: T1, DYRK1A protein (Homo sapiens, UniProt Q13627); assay: DYRK1A activity assay (fluorescein peptide substrate, UFLC with fluorescence detection); type: biochemical; settings: for IC50: DYRK1A protein, ΔDYRK1A enzyme, 37° C.
T1 construct: the peptide phosphorylated by His-DYRK1A-ΔC is separated from the unphosphorylated peptide; His (N)

CAMKII protein = assay: In vivo phosphorylation state of CAMKII in brain (slot-blot); settings: brain of TG animals (trisomy model for DYRK1A gene), intraperitoneal 1 mg/kg at t0 and t16 h, sacrifice t17-t18
Procedure: (§1) To test in vivo the efficacy of these inhibitors, the effect of the compounds according to the invention on the phosphorylation state of two DYRK1A downstream targets in signaling pathways was measured: GSKIII beta protein (FIG. 1a) and CAMKII protein (FIG. 1b).
(§2) These measurements were carried out in the brain of control animals (WT) and of animals of an animal model of trisomy for DYRK1A gene (TG).
(§3) To that end, the compounds were administered by intraperitoneal injection in the amount of 1 mg/kg at t0 then at t16 (hours) and the animals were sacrificed at t17-t18. Brain proteins were then extracted and the amounts of GSKIIIbeta, pGSKIIIbeta, CAMKII and pCAMKII proteins were measured by a slot-blot technique with suitable antibodies.
(§4) The results of these tests are presented in FIG. 1: the y-axis represents the ratio of phosphorylated protein to unphosphorylated protein measured on the untreated animals (WT and TG) and on the animals treated with the compounds according to the invention.

GSKIII beta protein = assay: In vivo phosphorylation state of GSKIII beta in brain (slot-blot); settings: brain of TG animals (trisomy model for DYRK1A gene), intraperitoneal 1 mg/kg at t0 and t16 h, sacrifice t17-t18
Procedure: as §1, §2, §3, §4

| Compound | IC50 (DYRK1A protein) | correction of hypophosphorylated CAMKII (pCAMKII/CAMKII ratio) (CAMKII protein) | correction of hyperphosphorylated GSKIIIbeta (pGSK/GSK ratio) (GSKIII beta protein) | IC50 values for known DYRK1A inhibitors (DYRK1A protein; validation of the test, compared with literature radioactive kinase tests) |
| --- | --- | --- | --- | --- |
| c1ccc(-c2cnc3[nH]cc(-c4ccccc4)c3c2)cc1 [B, 3-phenyl-5-phenyl-1H-pyrrolo[2,3-b]pyridine] | 7490 nM | – | – | – |
| Oc1ccc(-c2cnc3[nH]cc(-c4ccccc4)c3c2)cc1 [C, 3-phenyl-5-(4-hydroxyphenyl)-1H-pyrrolo[2,3-b]pyridine] | 326 nM | do not produce a sufficient correction | excessive correction | – |
| Oc1ccccc1-c1cnc2[nH]cc(-c3ccccc3)c2c1 [Compound A, 3-phenyl-5-(2-hydroxyphenyl)-1H-pyrrolo[2,3-b]pyridine] | 3590 nM | – | – | – |
| Oc1ccc(-c2cnc3[nH]cc(-c4ccccc4)c3c2)cc1O [E, 3-phenyl-5-(3,4-dihydroxyphenyl)-1H-pyrrolo[2,3-b]pyridine] | 160 nM | – | – | – |
| Oc1ccc(-c2cnc3[nH]cc(-c4ccccc4)c3c2)c(O)c1 [F, 3-phenyl-5-(2,4-dihydroxyphenyl)-1H-pyrrolo[2,3-b]pyridine] | 154 nM | – | – | – |
| Oc1cccc(-c2cnc3[nH]cc(-c4cccc(O)c4)c3c2)c1 [Ia, 3-(3-hydroxyphenyl)-5-(3-hydroxyphenyl)-1H-pyrrolo[2,3-b]pyridine] | 105 nM | – | – | – |
| COc1ccc(-c2c[nH]c3ncc(-c4ccc(O)cc4)cc23)cc1F [Ic, 3-(3-fluoro-4-methoxyphenyl)-5-(4-hydroxyphenyl)-1H-pyrrolo[2,3-b]pyridine] | 41.5 nM | – | – | – |
| epigallocatechin-3-gallate [reference compound] | – | – | – | Values similar to those of the literature |

More lines, in order of falling IC50 (DYRK1A protein), values ahead:

| IC50 (DYRK1A protein) | Compound | correction of hypophosphorylated CAMKII (pCAMKII/CAMKII ratio) (CAMKII protein) | correction of hyperphosphorylated GSKIIIbeta (pGSK/GSK ratio) (GSKIII beta protein) | IC50 values for known DYRK1A inhibitors (DYRK1A protein; validation of the test, compared with literature radioactive kinase tests) |
| --- | --- | --- | --- | --- |
| 39.1 nM | Oc1ccc(O)c(-c2cnc3[nH]cc(-c4ccc(O)c(O)c4)c3c2)c1 [I′e, 3-(3,4-dihydroxyphenyl)-5-(2,5-dihydroxyphenyl)-1H-pyrrolo[2,3-b]pyridine] | – | – | – |
| 23.1 nM | Oc1ccc(-c2cnc3[nH]cc(-c4ccc(O)cc4)c3c2)cc1 [Ib, 3-(4-hydroxyphenyl)-5-(4-hydroxyphenyl)-1H-pyrrolo[2,3-b]pyridine] | return the phosphorylation level to the value observed in the control animals | effective correction | – |
| 14.3 nM | Oc1ccc(-c2cnc3[nH]cc(-c4ccc(O)c(O)c4)c3c2)c(O)c1 [I′d, 3-(3,4-dihydroxyphenyl)-5-(2,4-dihydroxyphenyl)-1H-pyrrolo[2,3-b]pyridine] | – | – | – |
| 12.4 nM | Oc1ccc(-c2cnc3[nH]cc(-c4ccc(O)c(O)c4)c3c2)cc1O [I′c, 3-(3,4-dihydroxyphenyl)-5-(3,4-dihydroxyphenyl)-1H-pyrrolo[2,3-b]pyridine] | do not produce a sufficient correction | excessive correction | – |
| 11.7 nM | Oc1ccc(-c2c[nH]c3ncc(-c4ccc(O)cc4O)cc23)cc1 [I′a, 3-(4-hydroxyphenyl)-5-(2,4-dihydroxyphenyl)-1H-pyrrolo[2,3-b]pyridine] | return the phosphorylation level to the value observed in the control animals | effective correction | – |
| 9.3 nM | Oc1ccc(-c2cnc3[nH]cc(-c4ccc(O)c(F)c4)c3c2)cc1 [I′h, 3-(3-fluoro-4-hydroxyphenyl)-5-(4-hydroxyphenyl)-1H-pyrrolo[2,3-b]pyridine] | – | – | – |
| 3 nM | Oc1ccc(-c2c[nH]c3ncc(-c4ccc(O)c(O)c4)cc23)cc1 [I′b, 3-(4-hydroxyphenyl)-5-(3,4-dihydroxyphenyl)-1H-pyrrolo[2,3-b]pyridine] | – | – | – |
